Consider nine compounds from paper PMC11694070, “Development of 6-amido-4-aminoisoindolyn-1,3-diones as p70S6K1 inhibitors and potential breast cancer therapeutics” (Frontiers in Molecular Biosciences, 2024).

The target in data set [1] is p70S6K1 (Homo sapiens, UniProt P23443). Briefly: Z′-LYTE biochemical kinase inhibition assay (SelectScreen, Thermo Fisher). Particulars: for inhibition at 10 µM: 10 µM compound concentration, high-throughput single-concentration screen; for IC50 / IC50 of inhibition of p70S6K1: 10-point titration, 3-fold dilutions from 25 μM. The procedure:
The high-throughput and dose-response curve assays against kinases were performed using the services of SelectScreen™ Biochemical Kinase Profiling Service by Thermo Fisher Scientific (Table 2; Supplementary Figure S13). The Z ´-LYTE biochemical assay employs a fluorescence-based, coupled-enzyme format based on the differential sensitivity of phosphorylated and non-phosphorylated peptides to proteolytic cleavage. The peptide substrate is labeled with two fluorophores—one at each end—that make up a fluorescence resonance energy transfer (FRET) pair. In the primary reaction, the kinase transfers the gamma-phosphate of ATP to a single tyrosine, serine, or threonine residue in a synthetic FRET-peptide. In the secondary reaction, a site-specific protease recognizes and cleaves non-phosphorylated FRET peptides. Phosphorylation of FRET-peptides suppresses cleavage by the development reagent. Cleavage disrupts FRET between the donor (i.e., coumarin) and acceptor (i.e., fluorescein) fluorophores on the FRET-peptide, whereas uncleaved, phosphorylated FRET-peptides maintain FRET. A ratiometric method, which calculates the emission ratio of donor emission to acceptor emission after excitation of the donor fluorophore at 400 nm, is used to quantitate reaction progress, as shown in the equation below.” Emission ratio=Coumarin emission 445 nm/Flourescein emission 520 nm.
The test compounds were screened in 1% DMSO (final) in the well. For 10-point titrations, 3-fold serial dilutions were conducted from the starting concentration of 25 μM.
All peptide/kinase mixtures are diluted to a 2× working concentration in the appropriate kinase Buffer. The 2X RPS6KB1 (p70S6K)/Ser/Thr 07 mixture is prepared in 50 mM HEPES pH 7.5, 0.01% BRIJ-35, 10 mM MgCl2, 1 mM EGTA. The final 10 µL kinase reaction consists of 2.87–17.7 ng RPS6KB1 (p70S6K) and 2 µM Ser/Thr 07 in 50 mM HEPES pH 7.5, 0.01% BRIJ-35, 10 mM MgCl2, 1 mM EGTA. After the 1 h kinase reaction incubation, 5 µL of a 1:45000 dilution of Development Reagent A is added.
All ATP Solutions are diluted to a 4X working concentration in kinase buffer (50 mM HEPES pH 7.5, 0.01% BRIJ-35, 10 mM MgCl2, 1 mM EGTA). ATP Km apparent was previously determined using a Z′-LYTE assay.
Bar-coded Corning, low volume NBS, black 384-well plate (Corning Cat. #4514). • 1. 100 nL 100X test compound in 100% DMSO • 2. 2.4 µL kinase buffer • 3. 5 μL 2X peptide/kinase mixture • 4. 2.5 µL 4X ATP solution • 5. 30-s plate shake • 6. 60-min kinase reaction incubation at room temperature • 7. 5 μL Development Reagent solution • 8. 30-s plate shake • 9. 60-min Development Reaction incubation at room temperature • 10. Read on the fluorescence plate reader and analyze the data
The SelectScreenTM Biochemical Kinase Profiling Service by ThermoFisher Scientific was used to perform a high-throughput kinase inhibition assay at a single concentration as well as 10-point titrations to generate the dose-response curves for IC50 calculations. The Z′-LYTE biochemical assay, which is a FRET-based assay, was used to analyze the compounds for p70S6K1 inhibition. Compounds 5a–f were subjected to an initial high-throughput screening against p70S6K1 at 10 µM concentration (Table 1).

In data set [2] the test system is MCF7 E3 cells. Description: MCF-7 E3 cell proliferation assay (alamarBlue). It is filed as cell-based. Particulars: Homo sapiens, 10 μM compound, in the presence of E2 (10^−10 M), estrogen-deprived cells. The procedure:
Human breast tumor cells MCF-7 subclone E3 were routinely maintained in DMEM medium (Mediatech) supplemented with non-essential amino acid (Gibco), sodium pyruvate (Gibco), L-glutamine (Gibco), gentamicin (Gibco), and 10% fetal bovine serum (FBS) (Hyclone). For the proliferation experiment, the MCF-7 monolayer was dispersed into suspension in DMEM medium with 10% FBS, and 5 × 10^5 cells were seeded into a T-25 flask. The medium was aspirated from the cells, washed with phosphate buffer saline, and cultured with DMEM medium containing dextran-coated charcoal (DCC) FBS for 6 days. After 6 days, the cells were dispersed into suspension, counted, and 1.8 × 10^4 cells per well in a 100 µL DCC medium was subcultured into 96-well plates. After 24 h incubation, the medium was aspirated and replaced with the test compound at 10^−5 M. The cells were dosed again after 3 days and grown for another 3 days. Measurement for cell proliferation was performed with alamarBlue (Bio-Rad) on a plate reader (BioTek Synergy Neo2) with 560 nm excitation and 590 nm emission. The experiments were performed in quadruplicate.
The MCF7 cell line is often used in studies involving ERα overexpressing BC. It is well-established that overexpression of estrogen leads to overexpression of p70S6K1 due to the costimulatory relationship between them, thereby driving the progression of BC ([Fullwood et al., 2009]; [Maruani et al., 2012]). The knockdown or absence of estrogen was partially abrogated by p70S6K1 rescuing and promoting ERα activity ([Holz, 2012]; [Yamnik et al., 2009]). For these reasons, MCF7 cells were used for the proliferation studies in the presence of our p70S6K1 inhibitors. MCF7 E3 cells were grown under estrogen-deprived conditions and treated with 10 μM concentrations of the compounds with and without E2 (10^−10 M). The proliferation was measured using alamarBlue (Figure 5). Compound 5b, with the best p70S6K1 inhibition potency of 0.4 μM IC50 value, inhibited the proliferation of MCF7 E3 cells by 60% in the presence of E2. […] The trend of MCF7 E3 proliferation was directly proportional to the p70S6K1 inhibition potency.

Details of data set [3]: method as in Pearce et al., 2010; Segatto et al., 2016. Particulars: ref Pearce et al., 2010, Segatto et al., 2016, cited from earlier work.
Details of data set [4]: method as in Li et al., 2010; Motzer et al., 2015; Tolcher et al., 2014. Conditions: given with erlotinib and everolimus; ref Li et al., 2010; Motzer et al., 2015; Tolcher et al., 2014; cited from earlier work.
Data set [5] concerns cervical cancer cells. Set-up: method as in Nam et al., 2019. Particulars: ref Nam et al., 2019; cited from earlier work.
In data set [6] the test system is rpS6 phosphorylation (S235/236, S240/244). Description: Western blot of rpS6 and phospho-rpS6 in MCF7 cells. It is filed as cell-based, Human. Particulars: MCF7 cells estrogen deprived, 5 µM and 10 µM, with β estradiol, 24 h and 48 h. The procedure: Total proteins were isolated using standard protocols as previously described ([Greenberg et al., 2022]; [Kim H. et al., 2013]). In brief, ice-cold RIPA lysis buffer containing phosphatase and protease inhibitors (Santa Cruz Biotechnology, Dallas, TX, USA) was used to lyse cells. The clarified lysate protein concentration was measured using Bradford reagent (Thermo Scientific, Waltham, MA, USA). The proteins were separated using a 4%–20% SDS-PAGE gradient gel and transferred onto a PVDF membrane (Bio-Rad, Hercules, CA, USA). A 1X blocking buffer was used to block the non-specific binding sites. The membranes were washed with Tris-buffered saline (Bio-Rad) containing 0.1% Tween-20 (Sigma-Aldrich, St. Louis, MO, USA). Membranes were incubated overnight with primary antibodies at 4°C. […] Immune complexes were detected with appropriate secondary antibodies from Invitrogen (Camarillo, CA, USA) and Clarity Western ECL Substrate (Bio-Rad), as described ([Greenberg et al., 2022]). […] Results were expressed as the standard error of the mean (±SEM). Significant changes from controls or E2 treated group were determined by a two-tailed Student’s t-test, and p-values of <0.05 were considered significant. […]
(In general: Immunoblotting shows a protein as a band on a membrane.)

Structures are written as SMILES.

Chain of p70S6K1 (P23443 24-525): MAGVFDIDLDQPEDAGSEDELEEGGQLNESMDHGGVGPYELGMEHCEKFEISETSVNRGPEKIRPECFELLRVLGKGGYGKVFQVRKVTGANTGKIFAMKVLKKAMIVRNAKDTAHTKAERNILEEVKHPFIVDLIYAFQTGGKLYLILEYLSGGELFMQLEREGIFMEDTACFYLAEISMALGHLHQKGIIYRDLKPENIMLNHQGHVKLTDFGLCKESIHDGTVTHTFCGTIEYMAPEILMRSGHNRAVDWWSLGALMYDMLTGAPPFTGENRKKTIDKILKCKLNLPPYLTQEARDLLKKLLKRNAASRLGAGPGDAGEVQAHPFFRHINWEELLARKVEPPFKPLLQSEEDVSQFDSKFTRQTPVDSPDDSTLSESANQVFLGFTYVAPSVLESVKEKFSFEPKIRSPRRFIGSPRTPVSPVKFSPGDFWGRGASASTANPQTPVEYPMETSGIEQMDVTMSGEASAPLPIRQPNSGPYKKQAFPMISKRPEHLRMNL

As to `Nc1cc(NC(=O)C23CC4CC(CC(C4)C2)C3)cc2c1C(=O)NC2=O` [Compound 5e, N-(7-amino-1,3-dioxoisoindolin-5-yl)adamantane-1-carboxamide], 10 µM produced 22% inhibition in data set [1].

As to `Nc1cc(NC(=O)Cc2ccc(Br)cc2)cc2c1C(=O)NC2=O` [Compound 5f, N-(7-amino-1,3-dioxoisoindolin-5-yl)-2-(4-bromophenyl)acetamide], the inhibition at 10 µM in data set [2] was found to be 40%. In data set [1], the inhibition at 10 µM came out at 93%, the IC50 was determined as 750 nM and the “IC50 of inhibition of p70S6K1” value was “sub-micromolar”.

For `CCc1cncnc1N1CCN(Cc2nc3cc(C(F)(F)F)ccc3[nH]2)CC1` [PF-4708671], the “tolerability in preclinical studies” value in data set [3] (preclinical studies for breast cancer) is “well-tolerated”. The “blood–brain barrier (BBB) penetration” value in data set [3] is on record as “poor blood–brain barrier (BBB) penetrant”.

As for `Cn1cc(-c2ccc(F)c(C(F)(F)F)c2)nc1C1CCN(c2ncnc3[nH]ncc23)CC1` [LY-2584702], the “tolerability in Phase I trials” value in data set [4] is “not well-tolerated”.

Consider `Nc1cc(N)c2c(c1)C(=O)NC2=O` [Compound 4, 4,6-diaminoisoindoline-1,3-dione], for which, in data set [1], testing at 10 µM gave an inhibition of 70% and the half-maximal inhibitory concentration (IC50) was found to be 1200 nM.

As to `Nc1cc(NC(=O)Cc2ccc(C(F)(F)F)cc2)cc2c1C(=O)NC2=O` [Compound 5c, N-(7-amino-1,3-dioxoisoindolin-5-yl)-2-(4-(trifluoromethyl)phenyl)acetamide], in data set [2], the inhibition at 10 µM was found to be 35%. Moreover, in data set [1], the inhibition at 10 µM was found to be 80% and the IC50 was 5450 nM.

Consider `Nc1cc(NC(=O)Cc2cccc(C(F)(F)F)c2)cc2c1C(=O)NC2=O` [Compound 5d, N-(7-amino-1,3-dioxoisoindolin-5-yl)-2-(3-(trifluoromethyl)phenyl)acetamide], for which the inhibition at 10 µM in data set [2] was 56%. Besides, in data set [1], the inhibition at 10 µM is more than 90%, the half-inhibitory concentration (IC50) amounted to 510 nM and the “IC50 of inhibition of p70S6K1” value is listed as “sub-micromolar”.

For the compound `COC(=O)[C@@H](Cc1ccc(O)c(O)c1)OC(=O)/C=C/c1ccc(O)c(O)c1` [Rosmarinic acid methyl ester], the “autophagy and apoptotic cell death” value in data set [5] was “increase in autophagy and apoptotic cell death”.

Consider `Nc1cc(NC(=O)Cc2ccccc2)cc2c1C(=O)NC2=O` [Compound 5b, N-(7-amino-1,3-dioxoisoindolin-5-yl)-2-phenylacetamide], for which, in data set [6], the “rpS6 protein expression and phosphorylation (S235/236, S240/244), immunoblot band intensity” value is “significant decreases”. For the same compound, in data set [2], the inhibition at 10 µM was determined as 60%. In data set [1], the inhibition at 10 µM was more than 90%, the IC50 was determined as 400 nM and the “IC50 of inhibition of p70S6K1” value was “sub-micromolar”.

As usually defined, the inhibition is how much of the control response was suppressed. A word on the IC50: it is the concentration needed to halve the response being measured. Read a high IC50 as weaker potency in that assay.
